Test results taken from patent publication US5486512A, “Quinazoline derivatives as acetylcholinesterase inhibitors” (priority 1994, dated 1996).
Where two headings read alike, the source gives them in different places.

Assays:
Assay type in all cases: biochemical
[1] = target: T1, Human Red Blood Cell AChE (Homo sapiens, UniProt P22303); test: Inhibition of human red blood cell acetylcholinesterase in vitro (radiometric assay of Johnson and Russell, modified)
T1 construct: from tissue; host or cells: human red blood cells
Text: (§1) The in vitro data was obtained according to the radiometric assay of C. D. Johnson and R. L. Russell described in Anal. Biochem., 64:229-238 (1975) and modified as described by M. R. Emmerling and H. M. Sobkowicz in Hearings Research, 32:137-146 (1988); the rat brain homogenate acetylcholinesterase inhibition data were obtained by the Ellman assay, described by G. L. Ellman, D. Courtney, V. Andres, and R. M. Feathersome, described in Biochem. Pharmacol. 7:88-95 (1961), and modified as described by M. J. Marks, D. M. Patinkin, L. D. Artman, J. B. Busch, and A. C. Collins in Pharmacol. Biochem. and Behav.15:271-279 (1981), which references are incorporated herein.

[2] = target: Electric Eel AChE (Electrophorus electricus, UniProt O42275); test: Inhibition of electric eel acetylcholinesterase in vitro
Text: as §1

[3] = target: T2, Rat Brain Homogenate AChE (Rattus norvegicus, UniProt P37136); test: Inhibition of rat brain homogenate acetylcholinesterase (Ellman assay, modified); details: Table I
T2 construct: rat brain homogenate acetylcholinesterase; from tissue; host or cells: rat brain homogenate
Text: as §1

[4] = Table I, read-out: Inhibition of Acetylcholinesterase, Human Red Blood Cell AChE
[5] = Table III, electric eel AChE, read-out: IC50 Eel AChE
[6] = Table I, read-out: Inhibition of Acetylcholinesterase, Electric Eel AChE
[7] = Table II, human red blood cell AChE, read-out: IC50 Human AChE

T2 sequence (P37136 32-614): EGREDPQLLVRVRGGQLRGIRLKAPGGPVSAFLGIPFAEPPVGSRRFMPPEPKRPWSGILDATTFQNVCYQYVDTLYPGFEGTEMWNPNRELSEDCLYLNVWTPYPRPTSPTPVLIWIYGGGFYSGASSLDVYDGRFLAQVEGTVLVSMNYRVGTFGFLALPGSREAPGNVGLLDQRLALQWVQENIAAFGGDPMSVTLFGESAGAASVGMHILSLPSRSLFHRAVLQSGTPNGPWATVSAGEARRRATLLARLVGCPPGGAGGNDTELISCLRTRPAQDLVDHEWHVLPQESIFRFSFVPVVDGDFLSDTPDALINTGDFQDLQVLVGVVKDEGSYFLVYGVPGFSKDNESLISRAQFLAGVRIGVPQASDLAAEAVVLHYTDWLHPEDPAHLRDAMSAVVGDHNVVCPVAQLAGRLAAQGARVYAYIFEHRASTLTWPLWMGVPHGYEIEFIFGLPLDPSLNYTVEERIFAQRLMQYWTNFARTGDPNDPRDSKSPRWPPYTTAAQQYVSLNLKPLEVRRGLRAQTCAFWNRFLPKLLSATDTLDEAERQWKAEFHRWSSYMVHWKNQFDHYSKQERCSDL
T1 sequence (P22303 other isoform, or with tags, fused parts or gaps): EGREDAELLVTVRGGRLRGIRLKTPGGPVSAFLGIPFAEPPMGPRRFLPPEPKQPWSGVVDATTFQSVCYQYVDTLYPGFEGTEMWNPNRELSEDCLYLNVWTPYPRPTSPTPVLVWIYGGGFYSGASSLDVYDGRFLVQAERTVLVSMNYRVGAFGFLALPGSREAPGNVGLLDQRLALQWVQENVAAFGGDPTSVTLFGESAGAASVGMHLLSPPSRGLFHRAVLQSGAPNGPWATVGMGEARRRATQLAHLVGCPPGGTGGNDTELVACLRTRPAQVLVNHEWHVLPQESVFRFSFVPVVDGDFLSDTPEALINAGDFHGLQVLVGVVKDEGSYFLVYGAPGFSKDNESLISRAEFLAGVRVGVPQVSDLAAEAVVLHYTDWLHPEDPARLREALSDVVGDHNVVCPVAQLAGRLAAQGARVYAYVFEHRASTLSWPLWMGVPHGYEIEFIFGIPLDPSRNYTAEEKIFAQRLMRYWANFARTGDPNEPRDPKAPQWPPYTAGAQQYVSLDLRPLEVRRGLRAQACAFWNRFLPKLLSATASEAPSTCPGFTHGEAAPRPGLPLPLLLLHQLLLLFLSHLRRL
Electric Eel AChE, sequence (O42275 24-633): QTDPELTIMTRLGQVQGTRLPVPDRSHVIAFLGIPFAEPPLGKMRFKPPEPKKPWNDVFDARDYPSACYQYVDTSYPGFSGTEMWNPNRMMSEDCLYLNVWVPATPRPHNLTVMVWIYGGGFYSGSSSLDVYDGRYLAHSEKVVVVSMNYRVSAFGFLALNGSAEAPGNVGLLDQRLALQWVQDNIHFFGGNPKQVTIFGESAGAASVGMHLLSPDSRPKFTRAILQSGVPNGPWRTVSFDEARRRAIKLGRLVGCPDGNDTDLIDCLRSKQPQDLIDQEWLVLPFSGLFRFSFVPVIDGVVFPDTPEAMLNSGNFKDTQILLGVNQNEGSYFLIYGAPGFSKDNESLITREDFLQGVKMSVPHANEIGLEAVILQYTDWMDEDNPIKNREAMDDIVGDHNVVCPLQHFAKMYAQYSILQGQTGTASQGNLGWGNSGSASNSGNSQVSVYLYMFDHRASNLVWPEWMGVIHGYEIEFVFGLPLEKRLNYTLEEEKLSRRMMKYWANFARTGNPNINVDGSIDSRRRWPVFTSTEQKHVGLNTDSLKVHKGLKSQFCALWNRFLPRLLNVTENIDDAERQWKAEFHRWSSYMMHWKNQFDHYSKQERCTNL

| Compound | IC50 [1, 4] [nM] | IC50 [2, 6] [nM] | other results |
| --- | --- | --- | --- |
| Cc1cc(Cl)c2c(c1)CN1CCCCCC1=N2 [2-CH3,4-Cl, H2, 4-chloro-2-methyl-6,7,8,9,10,12-hexahydroazepino[2,1-b]quinazoline] | 631 | – | – |
| Cc1cc(C)c2c(c1)CN1CCCCCC1=N2 [2,4-DiCH3, H2, 2,4-dimethyl-6,7,8,9,10,12-hexahydroazepino[2,1-b]quinazoline] | 900 | – | – |
| C1=CC2=Nc3ccccc3CN2C=C1 | – | – | IC50 [2, 5]: 1600 nM |
| Clc1ccc2c(c1Cl)CN1CCCCCC1=N2 [1,2-DiCl, H2, 1,2-dichloro-6,7,8,9,10,12-hexahydroazepino[2,1-b]quinazoline] | 3160 | – | – |
| FC(F)(F)c1ccc2c(c1)N=C1CCCCCN1C2 | – | – | IC50 [2, 5]: 1000 nM |
| Cc1ccc2c(c1)CN1CCCCCC1=N2 [2-CH3, H2, 2-methyl-6,7,8,9,10,12-hexahydroazepino[2,1-b]quinazoline] | 1800 | – | – |
| CCc1ccc2c(c1)CN1CCCCCC1=N2 [2-C2 H5, H2, 2-ethyl-6,7,8,9,10,12-hexahydroazepino[2,1-b]quinazoline] | 2500 | 1000 | – |
| Fc1ccc2c(c1)N=C1CCCCCN1C2 [3-F, H2, 3-fluoro-6,7,8,9,10,12-hexahydroazepino[2,1-b]quinazoline] | 2870 | 600 | – |
| Clc1cc(Cl)c2c(c1)N=C1C3CCC(C3)N1C2 (stereo not drawn) | – | – | IC50 [1, 7]: 50 nM |
| Clc1cc(Cl)c2c(c1)N=C1C3CC4CC(C3)CC(C4)N1C2 | – | – | IC50 [1, 7]: 60 nM |
| O=c1c2ccc(Cl)cc2nc2n1CCCCC2 [3-Cl, O, 3-chloro-7,8,9,10-tetrahydroazepino[2,1-b]quinazolin-12(6H)-one] | – | 21000 | – |
| c1ccc2c(c1)CN1CCCCCC1=N2 [H, H2] | 1900 | 610 | IC50 [3]: 16000 nM |
| Cc1ccc2c(c1)N=C1CCCCCN1C2 [3-CH3, H2, 3-methyl-6,7,8,9,10,12-hexahydroazepino[2,1-b]quinazoline] | 610 | – | – |
| Cc1c(Cl)ccc2c1CN1CCCCCC1=N2 [1-CH3,2-Cl, H2, 2-chloro-1-methyl-6,7,8,9,10,12-hexahydroazepino[2,1-b]quinazoline] | 3980 | – | – |
| S=c1c2ccc(Cl)cc2nc2n1CCCCC2 [3-Cl, S, 3-Chloro-7,8,9,10-tetrahydroazepino[2,1-b]quinazolin-12(6H)-thione] | – | 15800 | – |
| COc1cc2c(cc1OC)N=C1CCCCCN1C2 [2,3-DiOCH3, H2, 2,3-dimethoxy-6,7,8,9,10,12-hexahydroazepino[2,1-b]quinazoline] | 9000 | 398 | – |
| Clc1cc(Cl)c2c(c1)N=C1CCCCCN1C2 [1,3-DiCl, H2, 1,3-dichloro-6,7,8,9,10,12-hexahydroazepino[2,1-b]quinazoline] | 40 | 158 | IC50 [3]: 172 nM |
| N=c1c2ccc(Cl)cc2nc2n1CCCCC2 [3-Cl, NH, 3-chloro-7,8,9,10-tetrahydroazepino[2,1-b]quinazolin-12(6H)-imine] | – | 500 | – |
| Fc1cccc2c1CN1CCCCCC1=N2 [1-F, H2, 1-fluoro-6,7,8,9,10,12-hexahydroazepino[2,1-b]quinazoline] | 1900 | – | – |
| Clc1cc(Cl)c2c(c1)CN1CCCCCC1=N2 [2,4-DiCl, H2, 2,4-dichloro-6,7,8,9,10,12-hexahydroazepino[2,1-b]quinazoline] | 63 | 250 | IC50 [3]: 3810 nM |
| Clc1cccc2c1N=C1CCCCCN1C2 [4-Cl, H2, 4-chloro-6,7,8,9,10,12-hexahydroazepino[2,1-b]quinazoline] | 1500 | 631 | – |
| COc1ccc2c(c1)N=C1CCCCCN1C2 [3-OCH3, H2] | 2800 | – | – |
| Clc1cc(Cl)c2c(c1)N=C1CCCN1C2 | – | – | IC50 [1, 7]: 200 nM |
| Cc1c(Cl)cc2c(c1Cl)CN1CCCCCC1=N2 [1,3-DiCl, 2-Me, H2, 1,3-dichloro-2-methyl-6,7,8,9,10,12-hexahydroazepino[2,1-b]quinazoline] | 1000 | – | – |

| Compound | IC50 [1, 4] [nM] | IC50 [2, 6] [nM] | other results |
| --- | --- | --- | --- |
| Cc1cccc2c1N=C1CCCCCN1C2 [4-CH3, H2, 4-methyl-6,7,8,9,10,12-hexahydroazepino[2,1-b]quinazoline] | 6000 | – | – |
| Clc1ccc2c(c1)N=C1CC3CCC(C3)N1C2 (racemic) | – | – | IC50 [1, 7]: 920 nM |
| c1ccc2c(c1)CN1CCCCCCC1=N2 | – | – | IC50 [2, 5]: 4300 nM |
| Clc1ccc2c(c1Cl)N=C1CCCCCN1C2 [3,4-DiCl, H2, 3,4-dichloro-6,7,8,9,10,12-hexahydroazepino[2,1-b]quinazoline] | 1500 | 398 | IC50 [3]: 23800 nM |
| c1ccc2c(c1)CN1CCCC1=N2 | – | – | IC50 [2, 5]: 1600 nM |
| Clc1cc(Cl)c2c(c1)N=C1CCCCN1C2 | – | – | IC50 [1, 7]: 60 nM |
| CC1(C)CC2=Nc3cc(Cl)cc(Cl)c3CN2CC(C)(C)C1 | – | – | IC50 [1, 7]: 2000 nM |
| Clc1ccc2c(c1)CN1CCCCCC1=N2 [2-Cl, H2, 2-chloro-6,7,8,9,10,12-hexahydroazepino[2,1-b]quinazoline] | 500 | – | – |
| Clc1cc2c(cc1Cl)N=C1CCCCCN1C2 [2,3-DiCl, H2, 2,3-dichloro-6,7,8,9,10,12-hexahydroazepino[2,1-b]quinazoline] | 2500 | 398 | IC50 [3]: 17900 nM |
| N#Cc1ccc2c(c1)CN1CCCCCC1=N2 [2-CN, H2] | 6700 | 1500 | – |
| Clc1cc(Cl)c2c(c1)N=C1C3CCCC(C3)N1C2 (stereo not drawn) | – | – | IC50 [1, 7]: 1000 nM |
| c1ccc2c(c1)CN1CCCCCCCC1=N2 | – | – | IC50 [2, 5]: 4000 nM |
| Clc1cccc2c1CN1CCCCCC1=N2 [1-Cl, H2, 1-chloro-6,7,8,9,10,12-hexahydroazepino[2,1-b]quinazoline] | 1700 | – | – |
| Clc1ccc(Cl)c2c1CN1CCCCCC1=N2 [1,4-DiCl, H2, 1,4-dichloro-6,7,8,9,10,12-hexahydroazepino[2,1-b]quinazoline] | 631 | 100 | IC50 [3]: 16400 nM |
| O=c1c2c(Cl)cc(Cl)cc2nc2n1CCCCC2 | – | – | IC50 [1, 7]: 63000 nM |
| N=c1c2ccccc2nc2n1CCCC2 | – | – | IC50 [2, 5]: 1000 nM |
| N=c1c2ccccc2nc2n1CCCCC2 | – | – | IC50 [2, 5]: 2000 nM |
| Fc1cccc2c1N=C1CCCCCN1C2 [4-F, H2, 4-fluoro-6,7,8,9,10,12-hexahydroazepino[2,1-b]quinazoline] | 1600 | 1500 | – |
| Fc1ccc2c(c1)CN1CCCCCC1=N2 [2-F, H2, 2-fluoro-6,7,8,9,10,12-hexahydroazepino[2,1-b]quinazoline] | 2000 | – | – |
| Clc1cc(Cl)c2c(c1)N=C1CCC(c3ccccc3)(c3ccccc3)CN1C2 | – | – | IC50 [1, 7]: 63 nM |
| Clc1ccc2c(c1)N=C1CCCCCN1C2 [3-Cl, H2, 3-chloro-6,7,8,9,10,12-hexahydroazepino[2,1-b]quinazoline] | – | 200 | IC50 [3]: 1900 nM |
| c1ccc(C2(c3ccccc3)CCC3=Nc4ccccc4CN3C2)cc1 | – | – | IC50 [2, 5]: 370 nM |
| c1ccc(C2CC3=Nc4ccccc4CN3C2)cc1 (stereo not drawn) | – | – | IC50 [2, 5]: 3100 nM |
